For the assay, the system named is CEM cells HIV-1 protection, formazan growth assay. The experiment in a line: NCI AIDS Antiviral Assay. The note with it: for IC50: measured here: growth of uninfected CEM cells. The essentials: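 Screen of anti-HIV-1 activity in human CEM cells using a formazan-based growth measurement at five drug concentrations. Hits with 50% or greater protection were repeated, and confirmation required reproducible complete protection.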

Active and inactive are the calls of the source.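 The calls were made as follows: active = compounds giving half or more protection of infected cells from virus-caused growth loss, again on retest; inactive = the rest.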 A value given as a limit tells only on which side of the number the result lay.

Consider `CCN(CCCN(CC)C(=O)N[C@@H](Cc1ccccc1)C(=O)NC)C(=O)N[C@@H](Cc1ccccc1)C(=O)NC`, for which the EC50 was over 200 µM and the 50% inhibitory concentration (IC50) is over 200 µM.
Regarding `O=C(O)c1c(O)c2cc([N+](=O)[O-])ccc2oc1=O`, the EC50 was over 324 µM and the half-inhibitory concentration (IC50) is over 324 µM.
For the molecule `O=C1c2ccccc2C(=O)N1C/C=N/NS(=O)(=O)c1ccc(Br)cc1`, the EC50 was over 112 µM and the half-maximal inhibitory concentration (IC50) was over 112 µM.
On to `CC(C)NC(=O)OCCS(=O)c1c(Cl)c(Cl)nn1C` (stereo not drawn), for which the EC50 is over 200 µM and the IC50 stood at 33.1 µM.
As for `O=c1nc2c(c(-c3ccc(F)cc3)[nH]1)COC/C2=C\c1ccc(F)cc1`, the result was inactive.
`Cc1cc2oc(C)c(S(=O)(=O)NC(=O)Nc3ccc(Cl)cc3)c(=O)c2c(=O)o1`: the EC50 is over 200 µM and the half-maximal inhibitory concentration (IC50) was 107 µM.
The corresponding values for `COc1ccc2c(c1OC)C(=O)C2` are over 200 µM and over 200 µM.
Take `Cc1nn(C)c2nc3ccc(Cl)cc3c(-c3ccccc3)c12`: the EC50 was over 200 µM and the IC50 is over 200 µM.
Turning to `c1ccc2nc(SSc3ccc4ccccc4n3)ccc2c1`, the EC50 is over 200 µM and the IC50 amounted to 24 µM.
Consider `O=C(O)CCSCc1cc(C(=O)Nc2ccc(/C=C/c3ccc(NC(=O)c4cc(CSCCC(=O)O)c5cccnc5c4O)cc3S(=O)(=O)O)c(S(=O)(=O)O)c2)c(O)c2ncccc12`, for which the 50% effective concentration (EC50) was 1.51 µM and the IC50 came to 33.9 µM.
Consider `N#CCCN(C1=NN(C(=O)CC(=O)Nc2cccc(Cl)c2)C(c2ccccc2)C1)c1ccccc1Cl` (stereo not drawn), for which the EC50 is over 69.2 µM and the IC50 was over 69.2 µM.
With `CCC(C)c1cccc(C)c1NC(=O)C(=O)Cc1nc2ccccc2s1` (stereo not drawn), the EC50 was over 186 µM and the 50% inhibitory concentration (IC50) is over 186 µM.
Regarding `O=c1/c(=C\c2ccc(Cl)c(Cl)c2)sc2n1CCN=2`, the EC50 is over 200 µM and the half-inhibitory concentration (IC50) is over 200 µM.
On to `CC(CN(C)C)Sc1nnc(SC(C)CN(C)C)s1` (stereo not drawn), for which the outcome was inactive.
`COC(=O)c1cc(C(CCl)c2cc(C(=O)OC)c(O)c(Br)c2C)c(C)c(Br)c1O`: the outcome was inactive.
`CC(C)=CC(=O)C/C(=N\NC(N)=S)C(=O)Nc1ccc(Cl)cc1`: the EC50 was over 37.2 µM and the IC50 is over 37.2 µM.
Consider `CN1B(c2ccccc2)N(C)C(=O)N(C)C1=O`, for which the EC50 was over 200 µM and the IC50 was over 200 µM.
For the molecule `C[C@@H]1OCC(O)C([C@H]2OC(c3ccccc3)=N[C@H]2CO)O1` (stereo partly drawn), the EC50 is over 200 µM and the IC50 was over 200 µM.
Consider `C[C@]1(O)CC[C@H]2[C@@H]3CC[C@H]4C[C@H](O)[C@@H]5C[C@]4(CO5)[C@H]3CC[C@@]21C`, for which the EC50 is over 110 µM and the half-inhibitory concentration (IC50) was over 110 µM.
With `CCCCN1C(=O)C(NC(C)=O)C1COC(C)(C)C` (stereo not drawn), the EC50 is over 479 µM and the IC50 was over 479 µM.
As to `CCOC(=O)C1(C(C)C)OC2CCCCCN2C1=O` (stereo not drawn), the EC50 was over 589 µM and the half-inhibitory concentration (IC50) is over 589 µM.
Regarding `OCCN(CCO)c1ccc2ccc(N(CCO)CCO)nc2n1`, the EC50 is over 200 µM and the IC50 was 25.7 µM.
Regarding `CC(C)(CO)NCC(O)CS(=O)(=O)O` (stereo not drawn), the EC50 is over 200 µM and the IC50 is over 200 µM.
Consider `O=c1cc(O)nc2cn[nH]n12`, for which the EC50 was over 234 µM and the IC50 is over 234 µM.
As for `CC1(C)CN2Cc3cccc(n3)CN(CC(C)(C)[N-]C(=O)C(C)(OCc3ccccc3)C2)CC(C)(OCc2ccccc2)C(=O)[N-]1.[Cu+2]` (stereo not drawn), the EC50 is over 200 µM and the half-maximal inhibitory concentration (IC50) was 117 µM.
On to `COc1ccc(/C(C#N)=C/c2cccc(OC)c2OC)cc1`, for which the EC50 was over 200 µM and the IC50 came to 28.2 µM.
With `CCc1n[nH]c(=O)n1/N=C/c1ccccc1O`, the EC50 is over 200 µM and the IC50 is over 200 µM.
With `COc1ccc(NC(=O)CC(=O)N/N=C/c2ccc(N(CCC#N)S(C)(=O)=O)cc2)cc1`, the EC50 is over 148 µM and the half-inhibitory concentration (IC50) is over 148 µM.
On to `Cc1cc(S(=O)(=O)/N=C(/NN)NNc2cccc(C(F)(F)F)n2)c(S)cc1Cl`, for which the EC50 was over 200 µM and the concentration for half-maximal inhibition (IC50) amounted to 42.7 µM.
Consider `[Cu].c1ccc2c3[n-]c(c2c1)/N=c1\[n-]/c(c2ccccc12)=N\c1[n-]c(c2ccccc12)/N=c1\[n-]/c(c2ccccc12)=N\3`, for which the EC50 was over 200 µM and the concentration for half-maximal inhibition (IC50) came out at 51.3 µM.
With `O=C(Nc1ccc(C2=NCCN2)cc1)c1ccc(C(=O)Nc2ccc(C3=NCCN3)cc2)c(F)c1`, the 50% effective concentration (EC50) was 120 µM and the IC50 was over 200 µM.
`CCC(C)C(NC(=O)c1ccccc1SC(=O)OCCCC[n+]1ccccc1)C(N)=O` (stereo not drawn): the result was inactive.
For the molecule `Cn1c2ccccc2n2c3nc4ccccc4nc3c(C#N)c12`, the outcome was inactive.
As for `COC(=O)[C@]1(C)CC[C@]2(C)CC[C@]3(C)C4CC[C@@]5(COC(C)=O)C(CCC(=O)[C@@H]5C)[C@]4(C)CCC3(C)[C@@H]2C1` (stereo partly drawn), the EC50 is over 33.9 µM and the IC50 was 15.8 µM.
`COc1ccc(C(O)C(=O)c2nc3ccc(Cl)cc3[nH]c2=O)cc1` (stereo not drawn): the outcome was inactive.
Consider `OCC(Oc1ccccc1)C(O)C(O)C(CO)Oc1ccccc1` (stereo not drawn), for which the EC50 was over 200 µM and the IC50 was over 200 µM.
For the molecule `COC(=O)C(Cc1nc2ccccc2nc1C)/C(=N\NC(N)=O)C(=O)Nc1cccc([N+](=O)[O-])c1` (stereo not drawn), the EC50 is over 15.1 µM and the 50% inhibitory concentration (IC50) is over 15.1 µM.
In the case of `S=C1NC=CC(S)N1` (stereo not drawn), the EC50 is over 200 µM and the IC50 was over 200 µM.
With `CCCCCCCCCCCC(=O)OC[C@H](C[As](=O)(O)O)OC(=O)CCCCCCCCCCC`, the EC50 is over 200 µM and the IC50 was 4.17 µM.
Taken in the same sequence, the figures for `CCOC(=O)c1cc2c3c(c(C(C)=O)c(OC)c2[nH]1)N(C(=O)CC)CC3` were over 200 µM and 16.2 µM.
Consider `Cn1c(=O)nc2n(CCO)c(-c3ccccc3)c(-c3ccccc3)nc-2c1=O`, for which the EC50 is over 200 µM and the 50% inhibitory concentration (IC50) was over 200 µM.
With `O=c1/c(=C\C=C\c2ccccc2)sc2n1CCN=2`, the outcome was inactive.
For the molecule `Cc1ccc([P+](CCN2C(=O)c3ccccc3C2=O)(c2ccc(C)cc2)c2ccc(C)cc2)cc1`, the EC50 is over 200 µM and the half-inhibitory concentration (IC50) turned out to be 10 µM.
Consider `O=C(/C=C/c1ccc([N+](=O)[O-])cc1)c1nc2ccccc2[nH]1`, for which the EC50 is over 200 µM and the IC50 is 4.37 µM.
On to `N/C(=C\c1ccc(OCc2ccccc2)c(OCc2ccccc2)c1[N+](=O)[O-])C(=O)O`, for which the result was inactive.
Turning to `COc1ccc(-c2nnc(CCCCCCCCc3nnc(-c4ccc(OC)cc4)n3N)n2N)cc1`, the EC50 was over 200 µM and the half-maximal inhibitory concentration (IC50) was over 200 µM.
Regarding `N#CC12C(=O)NC(=O)C1(C#N)C1C=CC2CC1` (stereo not drawn), the EC50 is over 200 µM and the half-inhibitory concentration (IC50) was over 200 µM.
On to `CON(C)C(=O)C1CCCO1` (stereo not drawn), for which the EC50 is over 200 µM and the concentration for half-maximal inhibition (IC50) was over 200 µM.
Regarding `CC1(C)CC(=O)C(=CN2C(=O)CNC2=S)C(=O)C1`, the EC50 is over 200 µM and the half-maximal inhibitory concentration (IC50) was over 200 µM.
Turning to `Cn1cc2ccccc2c1-c1nc(F)nc(F)n1`, the EC50 was over 15.1 µM and the IC50 was over 15.1 µM.
On to `CN1Cc2ccccc2/C=C\c2ccccc21`, for which the EC50 is over 200 µM and the half-inhibitory concentration (IC50) stood at 132 µM.
In the case of `C=C1CN(S(=O)(=O)c2ccc(C)cc2)CCCN(Cc2ccncc2)CCCN(S(=O)(=O)c2ccc(C)cc2)C1`, the EC50 is over 200 µM and the 50% inhibitory concentration (IC50) is 4.37 µM.
For the molecule `CCCC(=O)OC1C(OC(=O)CCC)C(OC(=O)CCC)C(OC(=O)CCC)C(OC(=O)CCC)C1OC(=O)CCC` (stereo not drawn), the EC50 was over 417 µM and the IC50 is over 417 µM.
`CN(C)CCSc1nccc(-c2cc3ccccc3s2)n1`: the EC50 is over 417 µM and the 50% inhibitory concentration (IC50) came out at 11.5 µM.
With `CCOC(=O)/C(=C/c1ccc(C#N)cc1)N(CC)CC`, the EC50 was over 251 µM and the IC50 is over 251 µM.
Consider `O=S(=O)(OI(OI(OS(=O)(=O)C(F)(F)F)c1ccccc1)c1ccccc1)C(F)(F)F`, for which the EC50 is over 347 µM and the IC50 amounted to 6.92 µM.
Taken in the same sequence, the figures for `Nc1nc(=O)n(C2CC(O)C(CO)O2)c2nc(-c3ccc(-c4ccccc4)cc3)cnc12` (stereo not drawn) were over 200 µM and over 200 µM.
As for `CCNCCNC(=O)c1ccc(I)cc1`, the result was inactive.
Turning to `COC(=O)C1=C(C(=O)OC)SC(=C(N=Nc2ccccc2)c2ccccc2)S1`, the result was inactive.
In the case of `O=C1CCCCCCCCCCC1CN1CCCC1` (stereo not drawn), the outcome was inactive.
For the molecule `CCCc1ccc(NCc2cc(OC)c(OC)c(OC)c2)cc1`, the EC50 is over 74.1 µM and the half-inhibitory concentration (IC50) was determined as 31.6 µM.
For the molecule `Cn1nc(-c2ccccc2)c(C(=O)/C=C/c2ccc(Cl)cc2)c(N2CCCC2)c1=O`, the half-maximal effective concentration (EC50) was over 15.1 µM and the IC50 came out at 10.7 µM.
The corresponding values for `Cn1c(=O)n(CC2CS2)c2ccccc21` (stereo not drawn) are over 1120 µM and 24.5 µM.
As for `COC1=CC(=O)C=C(OC)C1=O`, the EC50 is over 214 µM and the 50% inhibitory concentration (IC50) is 1.12 µM.
For the molecule `Cc1nc2c(c(N3CCN(C)CC3)n1)Cc1ccccc1-2`, the EC50 was over 200 µM and the IC50 worked out at 41.7 µM.
As to `COc1ccc(CCCNC(=O)c2cc(OC)c(OC)cc2CCO)cc1OC`, the EC50 is over 200 µM and the half-inhibitory concentration (IC50) was over 200 µM.
Regarding `CO[C@H]1CC[C@@]2(C)C(CC[C@@]3(C)CC4=C[C@H]5C(C)(CO)C(=O)CCC5(C)[C@H]4CCC32)C1(C)C` (stereo partly drawn), the EC50 is over 100 µM and the IC50 was over 100 µM.
`CCCCCCCCC/C=C(/CC(=O)O)C(=O)O`: the EC50 was over 708 µM and the IC50 is over 708 µM.
With `NN1C(=O)C(CCO)S/C1=N/N=C1/SC(CCO)C(=O)N1N` (stereo not drawn), the EC50 was over 74.1 µM and the IC50 was over 74.1 µM.
In the case of `COC(=O)C1(CCCCCBr)CCCCCCCCCCC1=O` (stereo not drawn), the EC50 was over 200 µM and the IC50 was determined as 35.5 µM.
Take `CC[C@@H]1CC[C@@H]2[C@H](CC[C@]3(C)[C@@H](OC(C)=O)CC[C@@H]23)[C@H]1C(=O)OC`: the EC50 is over 200 µM and the IC50 amounted to 24.5 µM.
Regarding `CCN(CC)CCOc1ccc(N2C(=O)c3cccc4cc([N+](=O)[O-])cc(c34)C2=O)cc1`, the EC50 was over 200 µM and the IC50 was found to be 2.45 µM.

The record behind these values is PubChem BioAssay AID179 (DTP/NCI, 2004).
